The text below walks through data of PMC9686339, “Bioassay-guided isolation of Fenghuang Dancong tea constituents with α-glucosidase inhibition activities” (Frontiers in Nutrition, 2022).

Data set [1] addresses α-glucosidase. Briefly: α-glucosidase inhibition assay (p-NPG substrate). Type of data set: biochemical. The conditions noted are these: pH 6.8, 37°C. The procedure: This experiment was carried out according to the literature ([11]). Briefly, the test sample was dissolved in solutions (SS) with DMSO as the solvent. p-NPG and α-glucosidase were, respectively mixed with phosphate buffer (PB, 60 mM phosphate, pH 6.8) and used as stock solutions. The concentration of α-glucosidase solution (GS) was 0.5 U/ml and that of p-NPG solution (NS) was 5 mM. In addition, four different solutions (A, B, C and D) were prepared: Solution A contained 112 μl PB, 20 μl GS, and 8 μl SS; Solution B contained 112 μl PB and 20 μl GS; Solution C contained 112 μl PB, 8 μl SS, and 20 μl GS; and Solution D contained 132 μl PB and 8 μl DMSO. After starting each reaction at 37°C, p-nitrophenol was quantified by measuring the absorbance at 405 nm with a UV–vis spectrophotometer. The inhibition rate was calculated according to equation (1):
(1) Inhibition rate (%)= [((Aas − Bas)[…]) / (Aas −Bas)][…],
where Aas, Bas, Cas and Das are the absorbances of solution A, B, C and D, respectively. The sample concentration that inhibited 50% α-glucosidase activity was defined as the IC50value.

The next data set has as its system HepG2 cells. Briefly: Glucose consumption assay in HepG2 cells. The conditions noted are these: 0.18 mg/L, 24 h, medium with 12.0 mM glucose. Type of data set: cell-based. The procedure:
Here, HepG2 cells were used to evaluate the glucose consumption of the isolated compounds according to a method described in the literature ([12]). Briefly, HepG2 cells were cultured for 24 h. Subsequently, they were transferred from DMEM medium (containing FBS, PEM and SM) to another DMEM medium (containing 12.0 mM glucose). Then, HepG2 cells and the test samples with a concentration of 0.18 mg/L were incubated together for another 24 h. The glucose consumption was obtained by measuring the glucose content of the cell culture supernatant with a glucose kit.

Data set [2] in a line: Liposolubility (qualitative observation). Type of data set: physicochemical.
The subject of data set [3] is α-glucosidase. Put plainly: Enzyme kinetic experiments on α-glucosidase (reversibility, Lineweaver-Burk plots, secondary replot). Type of data set: biochemical. The source says:
The reversibility of enzyme inhibition can be determined according to the influence of sample concentration and enzyme concentration on enzyme activity. […] This implied that 1 was a reversible α-glucosidase inhibitor ([16]). The reversibility of the inhibition of α-glucosidase by different flavonoids has been studied extensively ([17]). However, definitive conclusions cannot been drawn about the relationship between the structure of flavonoids and the reversibility of the inhibition of α-glucosidase ([18]).
The double-reciprocal diagram, based on a Lineweaver–Burk plot, is widely used to investigate inhibitory kinetics of compounds on enzymes. […] Thus, the complex formed by the combination of compound 1 with substrate and α-glucosidase led to the inactivation of the latter. In addition, the number of binding sites between the compound and α-glucosidase can be obtained by a second linear fitting of the concentration of compound 1 and Y-intercept, which is shown in Figure 4D. […] Through further calculation, the binding constant was obtained as 4.58 × 10^4 L/mol. There were obvious differences in the inhibition mechanism of different types of flavonoids on α-glucosidase. […] The above facts indicate that the mechanisms of action of flavonoids on glucosidase are diverse and complex.

The test system of data set [4] is α-glucosidase. On the set-up: method as in PMID 30236734. Conditions: cited from earlier work.
The target of data set [5] is α-glucosidase. On the set-up: method as in PMID 28554631. The conditions noted are these: constituent of Yingde black tea; read-out: IC50 of α-glucosidase inhibition; cited from earlier work.

As usually defined, the IC50 is the concentration that gives 50% inhibition. As usually defined, the melting point is the temperature, or range, at which the solid turns liquid.

Like-named read-outs stand apart in the source and are kept apart here.

For `COc1ccc([C@H]2CC(=O)c3c(cc(O)c(/C=C(/C)CCC=C(C)C)c3O)O2)cc1O` [compound 1, (R, z)-6-(2,6-xylheptane-1,5-dien-1-yl)-5,7-dihydroxy-2-(3-hydroxy-4-methoxyphenyl) chroman-4-one], the melting point was 165 °C. The same compound gave an IC50 at α-glucosidase [1] of 7.51 µM. Also, the Glucose consumption with HepG2 cells is 10.58 ± 0.18 mmol/L. Besides, the Liposolubility result in data set [2] is reported as “excellent”. For the same compound, the “Type of α-glucosidase inhibition” value in the data set with α-glucosidase [3] (Lineweaver-Burk plot) is on record as “non-competitive”. Further, the “Binding constant with α-glucosidase” value in the data set on α-glucosidase [3] (calculated from secondary replot) is 45800 L/mol. Further, in the data set on α-glucosidase [3] (enzyme concentration vs enzyme activity at a series of sample dosages), the “Reversibility of the inhibition of α-glucosidase” value is “reversible”. Besides, the “Number of binding sites with α-glucosidase” value in the data set with α-glucosidase [3] (secondary replot of Y-intercept vs concentration) is recorded as “one”.
In turn, ameridone E [compound 5] returned a half-maximal inhibitory concentration (IC50) on α-glucosidase [1] of 81.7 ± 2.72 µM. The same compound came in with a Glucose consumption in the data set on HepG2 cells of 9.06 ± 0.15 mmol/L.
Take `CC1=CC[C@H](C)C(c2c(O)cc3occ(-c4ccc(O)cc4)c(=O)c3c2O)=CC1` [compound 3, (S)-6-(4,7-dimethylcyclohepta-1,4-dien-1-yl)-5,7-dihydroxy-3-(4-hydroxyphenyl)−4H-chromen-4-one]: the 50% inhibitory concentration (IC50) at α-glucosidase [1] is 56.4 ± 2.11 µM. In the data set with HepG2 cells, the Glucose consumption was determined as 8.98 ± 0.39 mmol/L. In data set [2], the Liposolubility result is “slightly inferior to the others”.
Regarding `O=c1c(O)c(-c2ccccc2)oc2cc(O)cc(O)c12` [galangin], in the data set on α-glucosidase [4], the “Number of binding sites with α-glucosidase” value is listed as “one”; the “Type of α-glucosidase inhibition” value was “mixed inhibition of competitive inhibition and non-competitive inhibition”.
In the case of amelliaone A, the half-maximal inhibitory concentration (IC50) on α-glucosidase [5] is 10.2 µM.
On α-glucosidase [1], `COc1ccc([C@H]2CC(=O)c3c(cc(O)c(/C=C(\C)CCC=C(C)C)c3O)O2)cc1O` [compound 2, (R,E)-6-(2,6-dimethylhepta−1,5-dien-1-yl)-5,7-dihydroxy-2-(3-hydroxy-4-methoxyphenyl) chroman-4-one] gave an IC50 of 33.2 ± 2.21 µM. This compound also gave a Glucose consumption in the data set on HepG2 cells of 9.40 ± 0.12 mmol/L. Besides, in data set [2], the Liposolubility result is given as “almost the same”.
On α-glucosidase [1], ameridone D [compound 4] yielded a half-maximal inhibitory concentration (IC50) of 76.5 ± 3.52 µM. In the data set on HepG2 cells, this compound yielded a Glucose consumption of 8.30 ± 0.33 mmol/L.
